Measurements as given in patent publication US20130129675A1, “INTERFERON THERAPIES IN COMBINATION WITH BLOCKADE OF STAT3 ACTIVATION” (BOARD OF REGENTS, THE UNIVERSITY OF TEXAS SYSTEM, priority 2009, published 2013).

How the values were obtained:
[1] = test system: Tregs (CD4+Foxp3+); experiment: Inhibition of Tregs in vivo; design: species or system mice; settings: for number of Foxp3+ Tregs in the thymus, lymph nodes, or spleen: alone or in combination; for % of CD4+ Foxp3+ Cells: bone marrow, control 24.5; for % of CD4+ Foxp3+ Cells / inhibition of the number of Tregs (CD4+Foxp3+) in the bone marrow: non-tumor bearing mice treated for 16 days; for inhibition of the number of Tregs (CD4+Foxp3+) in the peripheral blood / inhibition of the number of Tregs (CD4+Foxp3+) in the bone marrow: compared with control
Method: Determination of inhibition of Tregs in vivo. […] Single-cell suspensions were prepared from bone marrows, lymph nodes, spleens, thymuses and peripheral blood of mice. Single cells were surface-stained by FITC-conjugated anti-CD4 (L3T4), PerCP-conjugated anti-CD8 (53-6.7) and APC-conjugated anti-CD25 (PC61), and the cells were further subjected to intracellular staining with PE-conjugated mAbs to mouse FoxP3 (clone FJK-16s; eBioscience, San Diego, Calif.) using staining buffers and conditions specified by the manufacturer.
In vivo treatment of mice with IFN-α and WP1193 inhibits bone marrow-derived Tregs but combinational therapy is not synergistic. To ascertain the in vivo effects of IFN-α and WP1193, and in combination on Tregs, non-tumor bearing mice were treated for 16 days.

[2] = test system: B16 target cells (NK1.1+CD3− NK effector cells); experiment: NK cell cytotoxicity assay against melanoma cells; type: cell-based, mice; settings: WP1193 2 μM, IFN-α 20 ng/ml, 48 h, control 8.8
Method: (§1) Splenocytes were prepared as described above. NK1.1+CD3− NK effector cells or CD3+CD8+ T effector cells were sorted from splenocytes on a FACSAria Cell Sorter (BD Biosciences) with FITC-conjugated anti-mouse NK1.1 (eBioscience), PE-conjugated anti-CD3, and allophycocyanin (APC)-conjugated anti-CD8 antibodies (Miltenyi Biotec, Auburn, Calif.). B16 target cells were prepared as described above. The ratio of NK1.1+CD3− NK effector cells or CD8+ T effector cells to B16 target cells was 10:1 and 5:1, respectively. In the presence of NK1.1+CD3− NK cells or CD8+ T cells, treatment groups consisted of B16 target cells alone; B16 cells with 2 μM of WP1193; B16 cells with 20 ng/ml of IFN-α; B16 cells with 2 µM of WP1193 and 20 ng/ml of IFN-α. After 48 hours of incubation, the CFSE-labeled B16 melanoma cells were removed from the plates with trypsin and analyzed by FACS. Then, B16 cells were stained with PI (BD Biosciences) to distinguish viable cells from nonviable cells. B16 cells that were stained with CFSE and PI were considered nonviable. Flow cytometric acquisition of the B16 target cells was performed with a FACSCalibur flow cytometer (BD Biosciences), and data analysis was performed using FlowJo software (TreeStar). […]

[3] = test system: B16 target cells (CD3+CD8+ T effector cells); experiment: CD8+ T cell cytotoxicity assay against melanoma cells; type: cell-based, mice; settings: WP1193 2 μM, IFN-α 20 ng/ml, 48 h, control 10.8
Method: as §1

[4] = test system: serum cytokines; experiment: Serum cytokine levels (Bio-Plex); type: in vivo, C57BL/6J mice; settings: for IFN-gamma Concentration: control 1.5; for IL-1B Concentration: control 40.1; for TNF alpha Concentration: control 60.5
Method: Determination of serum cytokine levels. Groups of non-tumor bearing 4- to 6-week-old female mice were treated with either IFN-α or “empty” plasmid control, WP1193, or IFN-α in combination with WP1193 as described in FIG. 13. Blood was collected through a tail vein from mice 9 and 16 days after the first WP1193 administration. […] The assay was run according to the manufacturer's instruction (Bio-Rad) by the Immunology Core Service at MD Anderson Cancer Center (Houston, Tex.).
This experiment was reproduced twice in its entirety with identical findings.

[5] = test system: NK1.1+ NK cells from splenocytes; experiment: NK cell activating receptors (flow cytometry); type: cell-based, mice; settings: WP1193 2 μM, IFN-α 20 ng/ml, 24 hours (FIGS. 6C and 6D)
Method: Spleens from 4- to 6-week-old female mice were harvested and disassociated into a single-cell suspension as described above. Splenocytes were seeded at a density of 4×10^6 cells/well in 24-well culture plates and cultured with the RPMI 1640 medium in absence or presence of WP1193 (2 μM) and/or INF-α (20 ng/ml) for 24 hours. Afterwards, the cells were harvested and washed twice in PBS with 5% FCS, resuspended in staining buffer and labeled with FITC- or PE-conjugated anti-mouse NK1.1 (eBioscience, San Diego, Calif.) to identify the NK population. […] Following incubation, the cells were washed twice with FACS buffer and then analyzed with a BD FACSCalibur with gates set for viable splenocytes.
Because we observed NK and CD8+ T cell-mediated anti-tumor cytotoxicity were enhanced with combinational therapy, to ascertain if either IFN-α, WP1193 or both were augmenting the expression of MHC or NK activating receptors or their ligands, splenocytes and B16 cells were treated with RPMI 1640 medium (control), WP1193 (2 μM), IFN-α (20 ng/ml), or IFN-α (20 ng/ml)+WP1193 (2 μM) for 24 hours. The NK-activating ligands (Rae-1, H60 and CD155) and MHC (I and II) on B16 cells and the NK-activating receptors (NKG2D, KLRD1, NKp46 and DNAM-1) on NK1.1+ NK cells were analyzed by flow cytometric analysis.

| Compound | number of Foxp3+ Tregs in the thymus, lymph nodes, or spleen [1] | % of CD4+ Foxp3+ Cells [1] [%] | inhibition of the number of Tregs (CD4+Foxp3+) in the peripheral blood [1] [%] | inhibition of the number of Tregs (CD4+Foxp3+) in the bone marrow [1] [%] | % of B16 Killimg [2] [%] | % of B16 Killimg [3] [%] | IFN-gamma Concentration [4] | IL-1B Concentration [4] [pg/mL] | TNF alpha Concentration [4] [pg/mL] | NKG2D, KLRD1, NKp46 and DNAM-1 on NK cells [5] | suppressive activity of sorted Tregs ([1]; FoxP3-GFP reporter mouse, IFN-α-treated or control) |
| --- | --- | --- | --- | --- | --- | --- | --- | --- | --- | --- | --- |
| N#C/C(=C\c1cccc(Br)n1)C(=O)N[C@H](c1ccccc1)C1CC1 [WP1193, (S,E)-3-(6-bromopyridin-2-yl)-2-cyano-N-(cyclopropyl(phenyl)methyl)acrylamide] | did not inhibit | 16.8 | 20 | 31 | 10.9 | 11.2 | Not detected | 20.0 | 60.0 | did not appear to be up-regulated |  |
| IFN-α | did not inhibit | 5.2 | 46 | 78 | 12.5 | 14.3 | 20.2 pg/mL | 41.3 | 98.7 | did not appear to be up-regulated | did not see a decrease in the suppressive activity |
